Here are results for 23 molecules from patent US8952150B2, “Prostaglandin transporter inhibitors and uses thereof” (Albert Einstein College of Medicine of Yeshiva University, priority 2009, dated 2015).

The target in the assay is rat PGT (Rattus norvegicus (Rat), UniProt Q00910). As to the kind of experiment: [3H]PGE2 uptake inhibition in MDCK cells stably transfected with rat PGT (percent inhibition and IC50). Particulars: for Inh (% of Ctl) 0.1 μM: 0.1 μM compound; for Inh (% of Ctl) 0.1 μM / Inh (% of Ctl) 0.5 μM / Inh (% of Ctl) 2.5 μM / Inh (% of Ctl) 5 μM / Inh (% of Ctl) 1 μM / Inh (% of Ctl) 10 μM: inhibition of [3H]PGE2 uptake; for Inh (% of Ctl) 0.5 μM: 0.5 μM compound; for Inh (% of Ctl) 2.5 μM: 2.5 μM compound; for Inh (% of Ctl) 5 μM: 5 μM compound; for Inh (% of Ctl) 1 μM: 1 μM compound; for Inh (% of Ctl) 10 μM: 10 μM compound; for IC50: [3H]PGE2 uptake, MDCK cells stably transfected with rat PGT. Type of assay: cell-based. As for the experimental part: MDCK cells stably transfected with rat PGT (Endo et al., 2002) were seeded at 15-20% confluence on 24-well plates. The day on which the cells were seeded was considered day 1. PGE2 uptake experiments were conducted on day 4. All of the PGE2 uptake experiments were conducted at room temperature. On day 4, cells were washed twice with Waymouth buffer (135 mM NaCl, 13 mM H-Hepes, 13 mM Na-Hepes, 2.5 mM CaCl2, 1.2 mM MgCl2, 0.8 mM MgSO4, 5 mM KCl, and 28 mM D-glucose). Then 200 μL of Waymouth buffer containing [^3H]PGE2 (purchased from Perkin Elmer) was added to each well. At the designed time, the uptake of [^3H]PGE2 was stopped by aspiration of uptake buffer; this was followed by immediate washing twice with 500 μL of chilled Waymouth buffer. Cells were then lysed with 100 μL lysis buffer containing 0.25% SDS and 0.05 N NaOH. 1.5 mL of scintillation solution was added to each well, and intracellular [^3H]PGE2 was counted by MicroBeta Counter.
For preliminary testing of the compounds, 20 μL of Waymouth buffer containing the compound was added to each well; this was immediately followed by the addition of 180 μL of Waymouth buffer containing [^3H]PGE2. In each well, the total volume of uptake medium was 200 μL. Organic compounds were first dissolved in EtOH and then diluted in Waymouth buffer. The percent inhibition of [^3H]PGE2 uptake by compounds was calculated as [(uptakevehicle−uptakeinhibitor)÷(uptakevehicle)]×100.
IC50 was calculated by fitting an equation of y=m1−m1*(m0/(m2+m0)).

As usually defined, the IC50 is the concentration that gives 50% inhibition. Read a low IC50 as greater potency.

Consider `COC(=O)[C@@H](NC(=O)c1ccc(Nc2nc(NCCOCCOCCNC(=O)c3ccccc3)nc(Nc3ccc(O)cc3)n2)cc1)c1ccccc1` [compound 74], for which the “Inh (% of Ctl) 0.1 μM” value is listed as 45.0 % of Ctl, the “Inh (% of Ctl) 0.5 μM” value is on record as 51.6 % of Ctl, the “Inh (% of Ctl) 2.5 μM” value is given as 56.9 % of Ctl and the “Inh (% of Ctl) 5 μM” value is 82.0 % of Ctl.
On to `O=C(NCCOCCOCCNc1nc(Nc2ccccc2)nc(Nc2ccc3cn[nH]c3c2)n1)c1ccccc1` [compound 75], for which the “Inh (% of Ctl) 1 μM” value is 8.4 % of Ctl, the “Inh (% of Ctl) 5 μM” value is on record as 10.1 % of Ctl and the “Inh (% of Ctl) 10 μM” value is 12.5 % of Ctl.
In the case of `CCCCCCCC(=O)c1ccc(Nc2nc(NCCOCCOCCNC(=O)c3ccccc3)nc(Nc3ccc(O)cc3)n2)cc1` [compound 76], the “Inh (% of Ctl) 0.5 μM” value is listed as 13.5 % of Ctl, the “Inh (% of Ctl) 2.5 μM” value is 35.9 % of Ctl and the “Inh (% of Ctl) 5 μM” value was 70.5 % of Ctl.
The matching figures for `O=C(NCCOCCOCCNc1nc(Nc2ccc(O)cc2)nc(Nc2ccc3c(c2)C(=O)NC3=O)n1)c1ccccc1` [compound 77]: 1.8 % of Ctl, 4.3 % of Ctl and 23.2 % of Ctl.
The matching figures for `O=C(NCCOCCOCCNc1nc(Nc2ccc(O)cc2)nc(Nc2cccc(C(=O)NCc3ccccc3)c2)n1)c1ccccc1` [compound 78]: 15.5 % of Ctl, 24.5 % of Ctl and 83.2 % of Ctl.
The matching figures for `O=C(NCCOCCOCCNc1nc(Nc2ccc(O)cc2)nc(Nc2ccc(C(=O)N[C@@H](C(=O)O)c3ccccc3)cc2)n1)c1ccccc1` [compound 79]: 5.4 % of Ctl, 29.2 % of Ctl and 54.9 % of Ctl.
As for `O=C(NCCOCCOCCNc1nc(Nc2ccc(O)cc2)nc(Nc2ccc(C(=O)N[C@H](C(=O)O)c3ccccc3)cc2)n1)c1ccccc1` [compound 80], the “Inh (% of Ctl) 0.5 μM” value was 0.7 % of Ctl, the “Inh (% of Ctl) 2.5 μM” value was 21.8 % of Ctl and the “Inh (% of Ctl) 5 μM” value was 57.2 % of Ctl.
The matching figures for `COc1cc(Nc2nc(NCCOCCOCCNC(=O)c3ccccc3)nc(Nc3ccc(O)cc3)n2)ccc1C(=O)NCc1ccccc1` [compound 81]: 0.4 % of Ctl, 16.2 % of Ctl and 80.1 % of Ctl.
In the case of `O=C(NCCOCCOCCNc1nc(Nc2ccc(O)cc2)nc(Nc2ccc(C(=O)NCc3ccccc3)c(C(F)(F)F)c2)n1)c1ccccc1` [compound 82], the “Inh (% of Ctl) 0.5 μM” value is listed as 2.1 % of Ctl, the “Inh (% of Ctl) 2.5 μM” value is on record as 5.0 % of Ctl and the “Inh (% of Ctl) 5 μM” value was 47.6 % of Ctl.
For `O=C(NCCOCCOCCNc1nc(Nc2ccc(O)cc2)nc(Nc2ccc(C(=O)NCc3ccccc3)cc2)n1)c1ccccc1` [compound 83], the “Inh (% of Ctl) 0.5 μM” value was 4.1 % of Ctl, the “Inh (% of Ctl) 2.5 μM” value was 10.4 % of Ctl, the “Inh (% of Ctl) 5 μM” value is reported as 42.0 % of Ctl and the half-maximal inhibitory concentration (IC50) is 609 nM.
`O=C(NCCCCNc1nc(Nc2ccccc2)nc(Nc2ccc(O)cc2)n1)c1ccccc1` [compound 84]: the “Inh (% of Ctl) 1 μM” value is reported as 5.7 % of Ctl, the “Inh (% of Ctl) 5 μM” value is reported as 13.7 % of Ctl and the “Inh (% of Ctl) 10 μM” value is on record as 37.1 % of Ctl.
Take `O=C(NCCCCCNc1nc(Nc2ccccc2)nc(Nc2ccc(O)cc2)n1)c1ccccc1` [compound 85]: the “Inh (% of Ctl) 1 μM” value is reported as 7.6 % of Ctl, the “Inh (% of Ctl) 5 μM” value is 12.2 % of Ctl and the “Inh (% of Ctl) 10 μM” value was 49.6 % of Ctl.
As to `O=C(NCCOCCOCCNc1nc(Nc2ccc(O)cc2)nc(Nc2ccc(C(=O)NCc3ccccc3-c3ccccc3)cc2)n1)c1ccccc1` [compound 86], the “Inh (% of Ctl) 0.1 μM” value was 50.0 % of Ctl, the “Inh (% of Ctl) 0.5 μM” value is 70.7 % of Ctl, the “Inh (% of Ctl) 2.5 μM” value is given as 81.4 % of Ctl and the “Inh (% of Ctl) 5 μM” value was 86.4 % of Ctl. This molecule also returned an IC50 of 870 nM.
On the same counts, the results for `O=C(NCCOCCOCCNc1nc(Nc2ccc(O)cc2)nc(Nc2ccc(C(=O)NCc3cccc(Cl)c3)cc2)n1)c1ccccc1` [compound 87] are 55.1 % of Ctl, 71.8 % of Ctl, 83.5 % of Ctl, 90.6 % of Ctl and 710 nM.
The matching figures for `COc1cccc(CNC(=O)c2ccc(Nc3nc(NCCOCCOCCNC(=O)c4ccccc4)nc(Nc4ccc(O)cc4)n3)cc2)c1` [compound 88]: 61.8 % of Ctl, 67.6 % of Ctl, 82.6 % of Ctl, 88.2 % of Ctl and 820 nM.
For `O=C(NCCOCCOCCNc1nc(Nc2ccc(O)cc2)nc(Nc2ccc(C(=O)NCc3cccc4ccccc34)cc2)n1)c1ccccc1` [compound 89], the “Inh (% of Ctl) 0.5 μM” value was 33.8 % of Ctl, the “Inh (% of Ctl) 2.5 μM” value is reported as 76.5 % of Ctl and the “Inh (% of Ctl) 5 μM” value is on record as 86.0 % of Ctl.
On the same counts, the results for `O=C(NCCOCCOCCNc1nc(Nc2ccc(O)cc2)nc(Nc2ccc(C(=O)NCc3cccc(-c4ccccc4)c3)cc2)n1)c1ccccc1` [compound 90] are 23.4 % of Ctl, 60.6 % of Ctl and 72.7 % of Ctl.
`O=C(NCCOCCOCCNc1nc(Nc2ccc(O)cc2)nc(Nc2ccc(C(=O)NCc3ccc(Cl)cc3)cc2)n1)c1ccccc1` [compound 91]: the “Inh (% of Ctl) 0.1 μM” value is given as 60.8 % of Ctl, the “Inh (% of Ctl) 0.5 μM” value was 72.1 % of Ctl, the “Inh (% of Ctl) 2.5 μM” value is on record as 84.0 % of Ctl and the “Inh (% of Ctl) 5 μM” value was 88.0 % of Ctl. In addition, the half-inhibitory concentration (IC50) was determined as 620 nM.
Consider `COc1ccc(CNC(=O)c2ccc(Nc3nc(NCCOCCOCCNC(=O)c4ccccc4)nc(Nc4ccc(O)cc4)n3)cc2)cc1` [compound 92], for which the “Inh (% of Ctl) 0.5 μM” value was 33.7 % of Ctl, the “Inh (% of Ctl) 2.5 μM” value is given as 71.3 % of Ctl and the “Inh (% of Ctl) 5 μM” value is 80.6 % of Ctl.
The matching figures for `O=C(NCCOCCOCCNc1nc(Nc2ccc(O)cc2)nc(Nc2ccc(C(=O)NCc3ccc(-c4ccccc4)cc3)cc2)n1)c1ccccc1` [compound 93]: 24.6 % of Ctl, 43.3 % of Ctl and 51.1 % of Ctl.
On to `O=C(NCCOCCOCCNc1nc(Nc2ccc(O)cc2)nc(Nc2ccc(C(=O)NCc3ccc4[nH]ccc4c3)cc2)n1)c1ccccc1` [compound 94], for which the “Inh (% of Ctl) 0.5 μM” value is 36.0 % of Ctl, the “Inh (% of Ctl) 2.5 μM” value is 66.7 % of Ctl and the “Inh (% of Ctl) 5 μM” value is recorded as 76.1 % of Ctl.
Consider `O=C(NCCOCCOCCNc1nc(Nc2ccccc2)nc(Nc2ccc3[nH]nnc3c2)n1)c1ccccc1` [compound 95], for which the “Inh (% of Ctl) 1 μM” value is recorded as 1.9 % of Ctl, the “Inh (% of Ctl) 5 μM” value is reported as 23.4 % of Ctl and the “Inh (% of Ctl) 10 μM” value is reported as 50.4 % of Ctl.
Take `O=C(CCCCCCNc1nc(Nc2ccccc2)nc(Nc2ccc(O)cc2)n1)Nc1ccccc1` [compound 96]: the “Inh (% of Ctl) 1 μM” value was 8.6 % of Ctl, the “Inh (% of Ctl) 5 μM” value was 23.9 % of Ctl and the “Inh (% of Ctl) 10 μM” value is 51.9 % of Ctl.
